Patent US20130158362A1 (INFACARE PHARMACEUTICAL CORPORATION, priority 2011, published 2013)

System: total serum bilirubin (TSB)
Test: Phase 2b trial: total serum bilirubin (TSB), adjusted and unadjusted, change from baseline
Format: in vivo, human
Parameters: total serum bilirubin / total serum bilirubin, Delta (change from baseline) / Change from baseline of total serum bilirubin: unit not given here
Conditions: for total serum bilirubin / total serum bilirubin, Delta (change from baseline): 48 hours, preliminary data; for change from baseline in adjusted TSB, LS mean (SEM) / change from baseline in adjusted TSB, LS mean difference versus placebo / change from baseline in unadjusted TSB, LS Mean (SEM) / change from baseline in unadjusted TSB, LS Mean Difference versus placebo / change from baseline in adjusted TSB, LS mean (SEM) (primary endpoint): ANCOVA; for change from baseline in adjusted TSB, LS mean difference versus placebo, MMRM / change from baseline in adjusted TSB, LS means (SEM), MMRM: observed case
Method: Three cohorts of subjects were recruited. This clinical study was designed to evaluate safety and efficacy parameters in each cohort.
Scheduled assessments (including TSB) occurred before treatment and at 0.75 and 2 hours (or 1.5 and 3 hours, depending on PK blood sampling assignment); 6, 12, 24, 48, and 72 hours; and 14 and 30 (except TSB) days after treatment or early termination.
The primary efficacy endpoint was the change in adjusted TSB from baseline to 48 hours after treatment. The adjusted TSB was a calculation of the percentage variance of the TSB level from the age specific threshold for PT initiation per the AAP Guidelines, i.e., an indication of the distance below the PT threshold by time.
The Secondary Efficacy Endpoints were the change from baseline in unadjusted TSB at 48 hours after treatment, change from baseline in adjusted and unadjusted TSB at various other time points after treatment, percent change from baseline in unadjusted TSB, proportion of subjects who require PT/exchange transfusion (ET), time to PT/ET, duration of PT and time to hospital discharge.
Intent-to-treat population (ITT): Defined as all subjects who were randomly assigned treatment in the clinical study, had received IMP, and had at least 1 post baseline TSB measurement during the first 48 hours after treatment. Subjects were summarized based on randomized treatment.
Analysis of Efficacy Parameters: The primary efficacy analysis applied the analysis of covariance (ANCOVA) method to determine if there was a significant difference between treatment groups in change in adjusted TSB levels from baseline to 48 hours post baseline after controlling for the effects of gestational age and adjusted baseline TSB levels. If assumptions of ANCOVA appeared to be violated, a Wilcoxon rank-sum test could be performed instead. Time-to-event variables were analyzed using the Kaplan-Meier method, and Kaplan-Meier survival curves were presented.

[1] = 1.5 mg/kg, 6 hrs, unadjusted TSB, ITT Population
[2] = 1.5 mg/kg, 12 hrs, unadjusted TSB, ITT Population
[3] = 1.5 mg/kg, 24 hrs, unadjusted TSB, ITT Population
[4] = 1.5 mg/kg, 48 hrs, unadjusted TSB, ITT Population
[5] = 1.5 mg/kg, baseline, PP Population
[6] = 1.5 mg/kg, baseline, unadjusted TSB, ITT Population
[7] = 3.0 mg/kg IM, 48 h/early termination, ITT, LOCF

## tin IV mesoporphyrin IX dichloride [Stannsoporfin]
[1]
  6 hrs TSB, Mean (SD): 9.09 (2.175) mg/dL
  6 hrs TSB, Min: 5.1 mg/dL
[2]
  12 hrs Percent Change from Baseline in TSB, Max: 73.2%
  12 hrs Percent Change from Baseline in TSB, Mean (SD): 29.91 (21.467) %
  12 hrs Percent Change from Baseline in TSB, Min: −12.8%
  12 hrs TSB, Max: 14.3 mg/dL
  12 hrs TSB, Mean (SD): 9.82 (2.599) mg/dL
  12 hrs TSB, Min: 5.6 mg/dL
[3]
  24 hrs Percent Change from Baseline in TSB, Max: 66.1%
  24 hrs Percent Change from Baseline in TSB, Mean (SD): 30.23 (27.126) %
  24 hrs Percent Change from Baseline in TSB, Median: 38.20%
  24 hrs Percent Change from Baseline in TSB, Min: −33.3%
  24 hrs TSB, Max: 12.2 mg/dL
  24 hrs TSB, Mean (SD): 9.61 (2.566) mg/dL
  24 hrs TSB, Min: 5.2 mg/dL
[4]
  48 hrs Percent Change from Baseline in TSB, Max: 82.3%
  48 hrs Percent Change from Baseline in TSB, Mean (SD): 32.71 (37.298) %
  48 hrs Percent Change from Baseline in TSB, Min: −57.7%
  48 hrs TSB, Max: 13.5 mg/dL
  48 hrs TSB, Mean (SD): 9.85 (3.208) mg/dL
  48 hrs TSB, Min: 3.3 mg/dL
1.5 mg/kg, 14 days after treatment (text, not LOCF table)
  mean TSB levels: 3.06 mg/dL
[5]
  Baseline unadjusted TSB, Max: 12.0 mg/dL
  Baseline unadjusted TSB, Mean (SD): 7.52 (2.030) mg/dL
  Baseline unadjusted TSB, Median: 7.35 mg/dL
  Baseline unadjusted TSB, Min: 4.3 mg/dL
[6]
  Baseline TSB, Max: 12.0 mg/dL
  Baseline TSB, Mean (SD): 7.59 (1.816) mg/dL
  Baseline TSB, Min: 4.3 mg/dL
3.0 mg/kg IM (N = 13), treated per protocol
  total serum bilirubin: 10.53 ± 2.9
3.0 mg/kg IM, 6 h, ITT, LOCF
  adjusted TSB, Mean (SD): −13.20 (13.118) %
  change from baseline in adjusted TSB, Mean (SD): 2.72 (7.274) %
  change from baseline in adjusted TSB, Median: 2.10%
  change from baseline in unadjusted TSB, Mean (SD): 1.53 (0.762) mg/dL
  change from baseline in unadjusted TSB, Median: 1.35 mg/dL
  unadjusted TSB, Mean (SD): 9.74 (1.730) mg/dL
  unadjusted TSB, Median: 9.90 mg/dL
  change from baseline in adjusted TSB, LS mean (SEM): 2.57 (2.186) %
  change from baseline in adjusted TSB, LS mean difference versus placebo: −1.82%
  change from baseline in unadjusted TSB, LS Mean (SEM): 1.39 (0.254) mg/dL
  change from baseline in unadjusted TSB, LS Mean Difference versus placebo: -0.20 mg/dL
3.0 mg/kg IM, 6 h, ITT
  change from baseline in adjusted TSB, LS mean difference versus placebo, MMRM: −1.69%
  change from baseline in adjusted TSB, LS means (SEM), MMRM: 2.68 (2.252) %
3.0 mg/kg IM, 12 h, ITT, LOCF
  adjusted TSB, Mean (SD): −15.06 (13.787) %
  change from baseline in adjusted TSB, Mean (SD): 0.87 (9.503) %
  change from baseline in adjusted TSB, Median: 1.55%
  change from baseline in unadjusted TSB, Mean (SD): 2.05 (1.004) mg/dL
  change from baseline in unadjusted TSB, Median: 1.90 mg/dL
  unadjusted TSB, Mean (SD): 10.26 (1.748) mg/dL
  unadjusted TSB, Median: 10.90 mg/dL
  change from baseline in adjusted TSB, LS mean (SEM): 2.64 (3.209) %
  change from baseline in adjusted TSB, LS mean difference versus placebo: −4.50%
  change from baseline in unadjusted TSB, LS Mean (SEM): 2.06 (0.393) mg/dL
  change from baseline in unadjusted TSB, LS Mean Difference versus placebo: -0.54 mg/dL
3.0 mg/kg IM, 12 h, ITT
  change from baseline in adjusted TSB, LS mean difference versus placebo, MMRM: −5.14%
  change from baseline in adjusted TSB, LS means (SEM), MMRM: 0.83 (2.821) %
3.0 mg/kg IM, 24 h, ITT, LOCF
  adjusted TSB, Mean (SD): −24.46 (11.302) %
  change from baseline in adjusted TSB, Mean (SD): −8.53 (16.045) %
  change from baseline in adjusted TSB, Median: −3.10%
  change from baseline in unadjusted TSB, Mean (SD): 1.85 (1.596) mg/dL
  change from baseline in unadjusted TSB, Median: 2.08 mg/dL
  unadjusted TSB, Mean (SD): 10.06 (1.757) mg/dL
  unadjusted TSB, Median: 10.45 mg/dL
  change from baseline in adjusted TSB, LS mean (SEM): −9.21 (4.598) %
  change from baseline in adjusted TSB, LS mean difference versus placebo: −9.12%
  change from baseline in unadjusted TSB, LS Mean (SEM): 1.67 (0.578) mg/dL
  change from baseline in unadjusted TSB, LS Mean Difference versus placebo: -1.08 mg/dL
3.0 mg/kg IM, 24 h, ITT
  change from baseline in adjusted TSB, LS mean difference versus placebo, MMRM: −7.01%
  change from baseline in adjusted TSB, LS means (SEM), MMRM: −8.57 (3.894) %
[7]
  adjusted TSB, Mean (SD): −31.80 (18.214) %
  adjusted TSB, Median: −24.75%
3.0 mg/kg IM, 48 h, ITT, LOCF
  change from baseline in adjusted TSB, Mean (SD): −15.88 (21.406) %
  change from baseline in adjusted TSB, Median: −9.05%
  change from baseline in unadjusted TSB, Mean (SD): 2.47 (2.703) mg/dL
  change from baseline in unadjusted TSB, Median: 2.94 mg/dL
  unadjusted TSB, Mean (SD): 10.68 (2.956) mg/dL
  unadjusted TSB, Median: 11.65 mg/dL
  change from baseline in adjusted TSB, LS mean (SEM) (primary endpoint): −11.60 (5.612) %
  change from baseline in adjusted TSB, LS mean difference versus placebo: −10.02%
  change from baseline in unadjusted TSB, LS Mean (SEM): 2.90 (0.886) mg/dL
  change from baseline in unadjusted TSB, LS Mean Difference versus placebo: -1.34 mg/dL
3.0 mg/kg IM, 48 h, ITT, LOCF, listed as stannsoporfin
  change from baseline in adjusted TSB, LS mean (SEM) (primary endpoint): 11.6%
3.0 mg/kg IM, 48 h, ITT
  change from baseline in adjusted TSB, LS mean difference versus placebo, MMRM: −9.24%
  change from baseline in adjusted TSB, LS means (SEM), MMRM: −15.92 (4.919) %
3.0 mg/kg IM, intent to treat
  total serum bilirubin: 10.68 ± 3.0
  total serum bilirubin, Delta (change from baseline): 2.47 ± 2.7
3.0 mg/kg IM, treated per protocol
  total serum bilirubin, Delta (change from baseline): 2.20 ± 2.9
3.0 mg/kg IM, 72 h/early termination, ITT, LOCF
  adjusted TSB, Mean (SD): −42.64 (21.640) %
3.0 mg/kg IM, 72 h, ITT, LOCF
  change from baseline in adjusted TSB, Mean (SD): −26.72 (24.245) %
  change from baseline in adjusted TSB, Median: −17.30%
